# Test results reported in patent US12077503B2, “Substituted cyclic amides and their use as herbicides” (FMC CORPORATION, priority 2015, dated 2024).
# How the values were obtained:
# Assay type in all cases: in vivo
# [1] = test system: barnyardgrass (Echinochloa crus-galli); assay: Test G Pre-Emergence Protocol; settings: Echinochloa crus-galli, pre-emergence, 312 h, evaluated after 13 days; for pest or weed control at 15.625 g/ha: 15.625 g ai/ha, read-out: Barnyard grass damage rating (100=total damage to plant; 0=no damage to plant); for pest or weed control at 62.5 g/ha: 62.5 g ai/ha, 100=total damage to plant, 0=no damage to plant, read-out: plant damage rating, Barnyardgrass; for pest or weed control at 250 g/ha: 250 g ai/ha, read-out: Barnyardgrass damage rating (100=total damage to plant; 0=no damage to plant)
# In short: (§1)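 Glasshouse pre-emergence test: soil-sown seeds, sprayed after 1 d at 15.625, 62.5 or 250 g/ha. Conditions 24/16° C day/night, 14 h light, 65% humidity, watering twice daily. Rating 13 d post-spray (100 = total damage).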
# [2] = test system: corn (Zea mays); assay: Test G Pre-Emergence Protocol; settings: Zea mays, pre-emergence, 312 h, evaluated after 13 days; for plant injury at 15.625 g/ha: 15.625 g ai/ha; for plant injury at 15.625 g/ha / plant injury at 250 g/ha: read-out: Corn damage rating (100=total damage to plant; 0=no damage to plant); for plant injury at 62.5 g/ha: 62.5 g ai/ha, 100=total damage to plant, 0=no damage to plant, read-out: plant damage rating, Corn; for plant injury at 250 g/ha: 250 g ai/ha
# In short: as §1
# [3] = test system: giant foxtail (Setaria faberi); assay: Test G Pre-Emergence Protocol; settings: Setaria faberi, pre-emergence, 312 h, evaluated after 13 days; for pest or weed control at 15.625 g/ha: 15.625 g ai/ha; for pest or weed control at 15.625 g/ha / pest or weed control at 250 g/ha: read-out: Foxtail, Giant damage rating (100=total damage to plant; 0=no damage to plant); for pest or weed control at 62.5 g/ha: 62.5 g ai/ha, 100=total damage to plant, 0=no damage to plant, read-out: plant damage rating, Foxtail, Giant; for pest or weed control at 250 g/ha: 250 g ai/ha
# In short: as §1
# [4] = test system: ivy-leaved morning glory (Ipomoea hederacea); assay: Test G Pre-Emergence Protocol; settings: Ipomoea, pre-emergence, 312 h, evaluated after 13 days; for pest or weed control at 15.625 g/ha: 15.625 g ai/ha, read-out: Morning-glory, Ivy-leaved damage rating (100=total damage to plant; 0=no damage to plant); for pest or weed control at 62.5 g/ha: 62.5 g ai/ha, 100=total damage to plant, 0=no damage to plant, read-out: plant damage rating, Morningglory, Ivy-leaved; for pest or weed control at 250 g/ha: 250 g ai/ha, read-out: Morningglory, Ivy-leaved damage rating (100=total damage to plant; 0=no damage to plant)
# In short: as §1
# [5] = test system: redroot pigweed (Amaranthus retroflexus); assay: Test G Pre-Emergence Protocol; settings: Amaranthus retroflexus, pre-emergence, 312 h, evaluated after 13 days; for pest or weed control at 15.625 g/ha: 15.625 g ai/ha; for pest or weed control at 15.625 g/ha / pest or weed control at 250 g/ha: read-out: Pigweed, Redroot damage rating (100=total damage to plant; 0=no damage to plant); for pest or weed control at 62.5 g/ha: 62.5 g ai/ha, 100=total damage to plant, 0=no damage to plant, read-out: plant damage rating, Pigweed, Redroot; for pest or weed control at 250 g/ha: 250 g ai/ha
# In short: as §1
# [6] = test system: velvetleaf (Abutilon theophrasti); assay: Test G Pre-Emergence Protocol; settings: Abutilon theophrasti, pre-emergence, 312 h, evaluated after 13 days; for pest or weed control at 15.625 g/ha: 15.625 g ai/ha; for pest or weed control at 15.625 g/ha / pest or weed control at 250 g/ha: read-out: Velvetleaf damage rating (100=total damage to plant; 0=no damage to plant); for pest or weed control at 62.5 g/ha: 62.5 g ai/ha, 100=total damage to plant, 0=no damage to plant, read-out: plant damage rating, Velvetleaf; for pest or weed control at 250 g/ha: 250 g ai/ha
# In short: as §1
# [7] = test system: barnyardgrass (Echinochloa crus-galli); assay: Test G Post-Emergence Protocol; settings: Echinochloa crus-galli, post-emergence, 312 h; for pest or weed control at 15.625 g/ha: 15.625 g ai/ha, evaluated after 13 days (100=total damage to plant; 0=no damage to plant), read-out: Barnyardgrass damage rating; for pest or weed control at 62.5 g/ha: 62.5 g ai/ha, read-out: Barnyardgrass damage rating (100=total damage to plant; 0=no damage to plant); for pest or weed control at 62.5 g/ha / pest or weed control at 250 g/ha: evaluated after 13 days; for pest or weed control at 250 g/ha: 250 g ai/ha, read-out: damage to plant, Barnyardgrass (100=total damage to plant; 0=no damage to plant)
# Description: (§2) Seeds of corn (Zea mays), giant foxtail (Setaria faberi), barnyardgrass (Echinochloa crus-galli), ivy-leaved morning glory (Ipomoea hederacea), redroot pigweed (Amaranthus retroflexus) and velvetleaf (Abutilon theophrasti) were sown in standard soil in pots. After cultivation for 8 days under controlled conditions in a glasshouse (at 24/16° C., day/night; 14 hours light; 65% humidity), the plants were sprayed with an aqueous spray solution derived from the formulation of the technical active ingredient in acetone/water (50:50) solution containing 0.5% Tween 20 (polyoxyethylene sorbitan monolaurate, CAS RN 9005-64-5) to give a final dose of 15.625, 62.5 or 250 g/ha of test compound.
# (§3) The test plants were then grown on under controlled conditions in a glasshouse (at 24/16° C., day/night; 14 hours light; 65% humidity) and watered twice daily. After 13 days the test was evaluated (100=total damage to plant; 0=no damage to plant). A dash (-) means no test result.
# [8] = test system: corn (Zea mays); assay: Test G Post-Emergence Protocol; settings: Zea mays, post-emergence, 312 h; for plant injury at 15.625 g/ha: 15.625 g ai/ha, evaluated after 13 days (100=total damage to plant; 0=no damage to plant), read-out: Corn damage rating; for plant injury at 62.5 g/ha: 62.5 g ai/ha, read-out: Corn damage rating (100=total damage to plant; 0=no damage to plant); for plant injury at 62.5 g/ha / plant injury at 250 g/ha: evaluated after 13 days; for plant injury at 250 g/ha: 250 g ai/ha, read-out: damage to plant, Corn (100=total damage to plant; 0=no damage to plant)
# Description: as §2, §3
# [9] = test system: giant foxtail (Setaria faberi); assay: Test G Post-Emergence Protocol; settings: Setaria faberi, post-emergence, 312 h; for pest or weed control at 15.625 g/ha: 15.625 g ai/ha, evaluated after 13 days (100=total damage to plant; 0=no damage to plant), read-out: Foxtail, Giant damage rating; for pest or weed control at 62.5 g/ha: 62.5 g ai/ha, read-out: Foxtail, Giant damage rating (100=total damage to plant; 0=no damage to plant); for pest or weed control at 62.5 g/ha / pest or weed control at 250 g/ha: evaluated after 13 days; for pest or weed control at 250 g/ha: 250 g ai/ha, read-out: damage to plant, Foxtail, Giant (100=total damage to plant; 0=no damage to plant)
# Description: as §2, §3
# [10] = test system: ivy-leaved morning glory (Ipomoea hederacea); assay: Test G Post-Emergence Protocol; settings: Ipomoea, post-emergence, 312 h; for pest or weed control at 15.625 g/ha: 15.625 g ai/ha, evaluated after 13 days (100=total damage to plant; 0=no damage to plant), read-out: Morningglory, Ivy-leaved damage rating; for pest or weed control at 62.5 g/ha: 62.5 g ai/ha, read-out: Morningglory, Ivy-leaved damage rating (100=total damage to plant; 0=no damage to plant); for pest or weed control at 62.5 g/ha / pest or weed control at 250 g/ha: evaluated after 13 days; for pest or weed control at 250 g/ha: 250 g ai/ha, read-out: damage to plant, Morningglory, Ivy-leaved (100=total damage to plant; 0=no damage to plant)
# Description: as §2, §3
# [11] = test system: redroot pigweed (Amaranthus retroflexus); assay: Test G Post-Emergence Protocol; settings: Amaranthus retroflexus, post-emergence, 312 h; for pest or weed control at 15.625 g/ha: 15.625 g ai/ha, evaluated after 13 days (100=total damage to plant; 0=no damage to plant), read-out: Pigweed, Redroot damage rating; for pest or weed control at 62.5 g/ha: 62.5 g ai/ha, read-out: Pigweed, Redroot damage rating (100=total damage to plant; 0=no damage to plant); for pest or weed control at 62.5 g/ha / pest or weed control at 250 g/ha: evaluated after 13 days; for pest or weed control at 250 g/ha: 250 g ai/ha, read-out: damage to plant, Pigweed, Redroot (100=total damage to plant; 0=no damage to plant)
# Description: as §2, §3
# [12] = test system: velvetleaf (Abutilon theophrasti); assay: Test G Post-Emergence Protocol; settings: Abutilon theophrasti, post-emergence, 312 h; for pest or weed control at 15.625 g/ha: 15.625 g ai/ha, evaluated after 13 days (100=total damage to plant; 0=no damage to plant), read-out: Velvetleaf damage rating; for pest or weed control at 62.5 g/ha: 62.5 g ai/ha, read-out: Velvetleaf damage rating (100=total damage to plant; 0=no damage to plant); for pest or weed control at 62.5 g/ha / pest or weed control at 250 g/ha: evaluated after 13 days; for pest or weed control at 250 g/ha: 250 g ai/ha, read-out: damage to plant, Velvetleaf (100=total damage to plant; 0=no damage to plant)
# Description: as §2, §3
SMILES,pest or weed control at 15.625 g/ha [1],pest or weed control at 62.5 g/ha [1],pest or weed control at 250 g/ha [1],plant injury at 15.625 g/ha [2],plant injury at 62.5 g/ha [2],plant injury at 250 g/ha [2],pest or weed control at 15.625 g/ha [3],pest or weed control at 62.5 g/ha [3],pest or weed control at 250 g/ha [3],pest or weed control at 15.625 g/ha [4],pest or weed control at 62.5 g/ha [4],pest or weed control at 250 g/ha [4],pest or weed control at 15.625 g/ha [5],pest or weed control at 62.5 g/ha [5],pest or weed control at 250 g/ha [5],pest or weed control at 15.625 g/ha [6],pest or weed control at 62.5 g/ha [6],pest or weed control at 250 g/ha [6],pest or weed control at 15.625 g/ha [7],pest or weed control at 62.5 g/ha [7],other results
COc1cc([C@H]2CN(C)C(=O)[C@@H]2C(=O)Nc2ccccc2F)ccc1Cl (racemic) [Compound 1421],10%,60%,80%,0%,0%,10%,70%,80%,90%,0%,0%,0%,0%,0%,0%,0%,0%,0%,0%,20%,pest or weed control at 250 g/ha [7]: 20%; plant injury at 15.625 g/ha [8]: 10%; plant injury at 62.5 g/ha [8]: 10%; plant injury at 250 g/ha [8]: 10%; pest or weed control at 15.625 g/ha [9]: 20%; pest or weed control at 62.5 g/ha [9]: 40%; pest or weed control at 250 g/ha [9]: 50%; pest or weed control at 15.625 g/ha [10]: 10%; pest or weed control at 62.5 g/ha [10]: 0%; pest or weed control at 250 g/ha [10]: 0%; pest or weed control at 15.625 g/ha [11]: 0%; pest or weed control at 62.5 g/ha [11]: 0%; pest or weed control at 250 g/ha [11]: 0%; pest or weed control at 15.625 g/ha [12]: 10%; pest or weed control at 62.5 g/ha [12]: 0%; pest or weed control at 250 g/ha [12]: 0%
Cc1c(NC(=O)[C@H]2C(=O)N(C)C[C@@H]2c2ccc(C(F)(F)F)cc2)cccc1[N+](=O)[O-] (racemic) [Compound 1423],10%,10%,30%,10%,20%,10%,10%,60%,70%,0%,0%,0%,0%,0%,0%,0%,0%,0%,0%,10%,pest or weed control at 250 g/ha [7]: 10%; plant injury at 15.625 g/ha [8]: 10%; plant injury at 62.5 g/ha [8]: 0%; plant injury at 250 g/ha [8]: 10%; pest or weed control at 15.625 g/ha [9]: 0%; pest or weed control at 62.5 g/ha [9]: 20%; pest or weed control at 250 g/ha [9]: 60%; pest or weed control at 15.625 g/ha [10]: 0%; pest or weed control at 62.5 g/ha [10]: 0%; pest or weed control at 250 g/ha [10]: 0%; pest or weed control at 15.625 g/ha [11]: 0%; pest or weed control at 62.5 g/ha [11]: 0%; pest or weed control at 250 g/ha [11]: 50%; pest or weed control at 15.625 g/ha [12]: 0%; pest or weed control at 62.5 g/ha [12]: 0%; pest or weed control at 250 g/ha [12]: 0%
